For one data set, the system named is male mice.
Assay: not given
Particulars: mouse, in vivo, po, 2000 mg/kg.
Regarding `COc1ccc(-c2nc(N)nc(NC(=O)c3cccnc3)n2)c2ccccc12` [Example 2, 2-amino-4-nicotinoylamino-6-(1-methoxy-4-naphthyl)-s-triazine], the Acute toxicity entry is reported as “no toxicity was observed”. Still for that read-out and setting: under `Nc1nc(NC(=O)c2cccnc2)nc(-c2ccc3ccccc3c2O)n1` [Example 28, 2-amino-4-nicotinamido-6-(1-hydroxy-2-naphthyl)-s-triazine] stands “no toxicity was observed”. The same measure, in the same setting: to `Nc1nc(NC(=O)c2cccnc2)nc(-c2ccc3ccccc3c2)n1` [Example 18, 2-Amino-4-nicotinoylamino-6-beta-naphthyl-s-triazine] belongs “no toxicity was observed”; to `Nc1nc(NC(=O)c2cccnc2)nc(-c2ccc(Cl)c3ccccc23)n1` [Example 24, 2-amino-4-nicotinamido-6-(1-chloro-4-naphthyl)-s-triazine], “no toxicity was observed”. The same measure, in the same setting: to `COc1ccc(-c2nc(N)nc(N)n2)c2ccccc12` [Example 9, 2,4-diamino-6-(1-methoxy-4-naphthyl)-s-triazine] belongs “no toxicity was observed”; to `COc1cc2ccccc2cc1-c1nc(N)nc(N)n1` [Example 1, 2,4-diamino-6-(2-methoxy-3-naphthyl)-s-triazine], “no toxicity was observed”. In the case of `Nc1nc(NC(=O)c2cccnc2)nc(-c2ccc3cc(OCc4ccccc4)ccc3c2)n1` [Example 23, 2-amino-4-nicotin-amido-6-(6-benzyloxy-2-naphthyl)-s-triazine], the Acute toxicity result is reported as “no toxicity was observed”. On the same count and under the same terms, to `Nc1nc(NC(=O)c2cccnc2)nc(-c2cc3ccccc3cc2F)n1` [Example 3, 2-amino-4-nicotinoylamino-6-(2-fluoro-3-naphthyl)-s-triazine] belongs “no toxicity was observed”; to `Nc1nc(N)nc(-c2cc3ccccc3cc2Cl)n1` [Example 12, 2,4-diamino-6-(2-chloro-3-naphthyl)-s-triazine], “no toxicity was observed”.

The test system of a further data set is Carrageenin Edema. Kind of data set: Carrageenin edema inhibitory action (rat hind paw swelling). Format: in vivo, male rats (SLC-SD strain). The settings on record: po, 3 h, 400 mg/kg orally, one hour before 0.1 ml of 0.5% carrageenin into right hind paw, measured three hours later, vs control group, read-out: Carrageenin Edema Inhibitory Rate (%). The method, then:
Five male rats (SLC-SD strain, five weeks age, supplied by Seidokyo) were used in one group in the experiment. Drugs to be tested were given orally at a dose of 400 mg/kg and, one hour later, 0.1 ml of 0.5% carrageenin was injected subcutaneously to right hind paw. Three hours later, volumes of the right hind paws were measured, volumes of the paws before the carrageenin injection were deducted therefrom, and the resulting volumes were defined as a degree of swelling.
The inhibitory rates were calculated from mean degree of swelling of the drug-administered groups and the control group and the result is shown in Table 1.
Background: The carrageenan paw model is a standard test of acute inflammation.
On to `COc1cc2ccccc2cc1-c1nc(N)nc(NC(=O)c2cccnc2)n1` [Example 19, 2-amino-4-nicotinamido-6-(2-methoxy-3-naphthyl)-s-triazine], for which the inhibition in vivo at 400 mg/kg stood at 35%. Still for that read-out and setting: under `COc1ccc(-c2nc(N)nc(NC(=O)c3cccnc3)n2)c2ccccc12` [Example 2, 2-amino-4-nicotinoylamino-6-(1-methoxy-4-naphthyl)-s-triazine] stands 34.7%; under `Nc1nc(NC(=O)c2cccnc2)nc(-c2ccc3ccccc3c2O)n1` [Example 28, 2-amino-4-nicotinamido-6-(1-hydroxy-2-naphthyl)-s-triazine], 19.4%.

`COc1ccc2ccccc2c1-c1nc(N)nc(N)n1` [Example 7, 2,4-diamino-6-(2-methoxy-1-naphthyl)-s-triazine]: the inhibition in vivo at 400 mg/kg was 44.6%. For `Nc1nc(N)nc(-c2ccc(Br)c3ccccc23)n1` [Example 15, 2,4-diamino-6-(1-bromo-4-naphthyl)-s-triazine], the inhibition in vivo at 400 mg/kg turned out to be 48.4%. Same read-out and setting: to `Nc1nc(NC(=O)c2cccnc2)nc(-c2ccc3ccccc3c2)n1` [Example 18, 2-Amino-4-nicotinoylamino-6-beta-naphthyl-s-triazine] belongs 24.8%. Same read-out and setting: under `Nc1nc(NC(=O)c2cccnc2)nc(-c2ccc(Cl)c3ccccc23)n1` [Example 24, 2-amino-4-nicotinamido-6-(1-chloro-4-naphthyl)-s-triazine] stands 25%; under `Nc1nc(N)nc(-c2ccc3cc(OCc4ccccc4)ccc3c2)n1` [Example 10, 2,4-diamino-6-(2-benzyloxy-6-naphthyl)-s-triazine], 50.3%.

Regarding `COc1ccc(-c2nc(N)nc(N)n2)c2ccccc12` [Example 9, 2,4-diamino-6-(1-methoxy-4-naphthyl)-s-triazine], the inhibition in vivo at 400 mg/kg came out at 52.4%. On the same count and under the same terms, under `Nc1nc(N)nc(-c2ccc(Cl)c3ccccc23)n1` [Example 14, 2,4-diamino-6-(1-chloro-4-naphthyl)-s-triazine] stands 42.6%; under `COc1cc2ccccc2cc1-c1nc(N)nc(N)n1` [Example 1, 2,4-diamino-6-(2-methoxy-3-naphthyl)-s-triazine], 60.3%; under `Nc1nc(N)nc(-c2cc3ccccc3cc2F)n1` [Example 11, 2,4-diamino-6-(2-fluoro-3-naphthyl)-s-triazine], 48.8%.

For the molecule `Nc1nc(NC(=O)c2cccnc2)nc(-c2ccc3cc(OCc4ccccc4)ccc3c2)n1` [Example 23, 2-amino-4-nicotin-amido-6-(6-benzyloxy-2-naphthyl)-s-triazine], the inhibition in vivo at 400 mg/kg was determined as 28.1%. The same measure, in the same setting: to `Nc1nc(NC(=O)c2cccnc2)nc(-c2cc3ccccc3cc2Br)n1` [Example 27, 2-amino-4-nicotinamido-6-(2-bromo-3-naphthyl)-s-triazine] belongs 33.5%; to `Nc1nc(NC(=O)c2cccnc2)nc(-c2ccc(Br)c3ccccc23)n1` [Example 25, 2-amino-4-nicotinamidio-6-(1-bromo-4-naphthyl)-s-triazine], 25.1%. With `Nc1nc(N)nc(-c2ccc(OCc3ccccc3)c3ccccc23)n1` [Example 6, 2,4-diamino-6-(1-benzyloxy-4-naphthyl)-s-triazine], the inhibition in vivo at 400 mg/kg was found to be 30.9%.

With `Nc1nc(N)nc(-c2cc3ccccc3cc2Br)n1` [Example 13, 2,4-diamino-6-(2-bromo-3-naphthyl)-s-triazine], the inhibition in vivo at 400 mg/kg came to 49.1%. Same read-out and setting: under `Nc1nc(N)nc(-c2cc3ccccc3cc2OCc2ccccc2)n1` [Example 5, 2,4-diamino-6-(2-benzyloxy-3-naphthyl)-s-triazine] stands 30.4%. Still for that read-out and setting: under `Nc1nc(NC(=O)c2cccnc2)nc(-c2cc3ccccc3cc2F)n1` [Example 3, 2-amino-4-nicotinoylamino-6-(2-fluoro-3-naphthyl)-s-triazine] stands 56.5%; under `Nc1nc(N)nc(-c2cc3ccccc3cc2Cl)n1` [Example 12, 2,4-diamino-6-(2-chloro-3-naphthyl)-s-triazine], 61.3%. Turning to `COc1ccc2cc(-c3nc(N)nc(N)n3)ccc2c1` [Example 16, 2,4-diamino-6-(2-methoxy-6-naphthyl)-s-triazine], the inhibition in vivo at 400 mg/kg is 51.1%.

These data come from patent US4554275A, “Triazine derivatives” (Nippon Shinyaku Co., Ltd., priority 1982, dated 1985).
